Test results published in patent publication US10883142B2, “Risk assessment for phenytoin-induced adverse drug reactions” (priority 2011, dated 2021).

Key:
[1] = patients who received phenytoin; cited from earlier work
[2] = normal therapeutic range, plasma; cited from earlier work
[3] = Phenytoin plasma concentration during ADR onset, HPLC analysis of patients' plasma; type: in vivo, human
Protocol: In this study, the phenytoin concentrations during ADR onset were determined from patients' plasma by HPLC analysis and estimated by non-linear pharmacokinetics formula: […]
Therapeutic levels of phenytoin are usually between 10-20 μg/ml. […] We also compared the phenytoin plasma levels of patients who carried CYP2Cs variants. […] Defective metabolism of phenytoin may increase the risk of drug accumulation, and leads to its risk to induce severe hypersensitivity reactions, such as SJS/TEN and DRESS.

phenytoin concentrations ([3]; 5 phenytoin-ADRs patients who carry CYP2C9*3 variant (of 23 analysed)): higher than 20 μg/ml
Structure (SMILES): O=C1NC(=O)C(c2ccccc2)(c2ccccc2)N1 [phenytoin]
patients who developed hypersensitivity reactions [1]: more than 19%
therapeutic levels of phenytoin [2]: 10 to 20 µg/mL
phenytoin plasma levels ([3]; patients with phenytoin-SJS/TEN, P=0.006 vs. tolerant control): 40 to 50 µg/mL
phenytoin plasma levels ([3]; tolerant control patients, after taking drug): 5 to 15 µg/mL
